pKi: −log10 of the molar value.
Experiments:
Histamine H3 receptor [1] = biological target: Histamine H3 receptor (Homo sapiens, UniProt Q9Y5N1); test: Radioligand Binding Assay; details: pH 7.4; 25 °C
Procedure: (§1) Competition radioligand binding assays were performed with increasing concentrations of test compound in the presence of [3H]ligand. All binding reactions were terminated by filtration. Bound radiolabel was determined by liquid scintillation counting. For all of the radioligand competition binding assays, IC50 values and Hill slopes were determined by Hill transformation of the data and Ki values were determined by the Cheng-Prusoff equation.

Histamine H3 receptor [2] = biological target: Histamine H3 receptor (Rattus norvegicus, UniProt Q9QYN8); test: Radioligand Binding Assay
Procedure: as §1

Chain of Histamine H3 receptor (Rattus norvegicus, UniProt Q9QYN8) (Q9QYN8 whole entry): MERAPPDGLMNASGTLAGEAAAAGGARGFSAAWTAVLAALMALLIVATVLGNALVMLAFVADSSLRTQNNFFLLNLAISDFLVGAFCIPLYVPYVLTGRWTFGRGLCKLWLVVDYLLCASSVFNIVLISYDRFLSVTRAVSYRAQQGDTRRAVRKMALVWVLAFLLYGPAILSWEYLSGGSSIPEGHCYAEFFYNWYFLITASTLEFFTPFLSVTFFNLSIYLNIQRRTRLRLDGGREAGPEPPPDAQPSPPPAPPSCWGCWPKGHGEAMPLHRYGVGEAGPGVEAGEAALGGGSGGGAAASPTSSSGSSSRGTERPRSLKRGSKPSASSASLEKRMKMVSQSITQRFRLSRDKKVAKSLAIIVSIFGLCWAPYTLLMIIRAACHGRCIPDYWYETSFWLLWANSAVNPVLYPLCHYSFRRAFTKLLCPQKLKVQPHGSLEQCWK
Chain of Histamine H3 receptor (Homo sapiens, UniProt Q9Y5N1) (Q9Y5N1 whole entry): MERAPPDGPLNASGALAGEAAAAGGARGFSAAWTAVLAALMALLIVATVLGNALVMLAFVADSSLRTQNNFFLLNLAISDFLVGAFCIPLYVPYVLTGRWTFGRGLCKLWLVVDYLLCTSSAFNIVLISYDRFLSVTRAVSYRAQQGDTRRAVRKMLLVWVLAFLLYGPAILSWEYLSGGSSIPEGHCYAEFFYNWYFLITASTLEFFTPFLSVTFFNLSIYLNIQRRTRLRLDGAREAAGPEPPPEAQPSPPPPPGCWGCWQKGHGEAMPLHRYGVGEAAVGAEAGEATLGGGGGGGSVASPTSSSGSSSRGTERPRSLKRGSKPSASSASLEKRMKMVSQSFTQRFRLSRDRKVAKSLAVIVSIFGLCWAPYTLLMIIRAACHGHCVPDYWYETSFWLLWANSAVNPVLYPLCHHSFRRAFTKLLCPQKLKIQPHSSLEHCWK

CN[C@H]1CC[C@@]2(C)C(=CC[C@H]3[C@@H]4CC[C@@H]5[C@H](C)N(C)C[C@@]54CC[C@@H]32)C1 [(1R,2S,5S,6S,9R,12S,13R,16S)-N,6,7,13-tetramethyl-7-azapentacyclo[10.8.0.0^{2,9}.0^{5,9}.0^{13,18}]icos-18-en-16-amine]
pKi (Histamine H3 receptor [1]): 7.42
pKi (Histamine H3 receptor [2]): 6.52
